Assay results: patent US8524455B2, “Methods and compositions related to TR4 ligand” (University of Rochester, priority 2009, dated 2013)

Experiments:
[1] = target: T1, TR4 (Homo sapiens, UniProt P49116); test: CD36-luc luciferase reporter assay, TR4 co-transfected into CV-1 cells; type: cell-based; set-up: pCMX-TR4 plasmids consist of the full length human TR4 gene subcloned into pCMX vector; expressed in transfected cells; host or cells: CV-1; details: 24 h
T1 sequence (P49116 1-615 isoform P49116-2): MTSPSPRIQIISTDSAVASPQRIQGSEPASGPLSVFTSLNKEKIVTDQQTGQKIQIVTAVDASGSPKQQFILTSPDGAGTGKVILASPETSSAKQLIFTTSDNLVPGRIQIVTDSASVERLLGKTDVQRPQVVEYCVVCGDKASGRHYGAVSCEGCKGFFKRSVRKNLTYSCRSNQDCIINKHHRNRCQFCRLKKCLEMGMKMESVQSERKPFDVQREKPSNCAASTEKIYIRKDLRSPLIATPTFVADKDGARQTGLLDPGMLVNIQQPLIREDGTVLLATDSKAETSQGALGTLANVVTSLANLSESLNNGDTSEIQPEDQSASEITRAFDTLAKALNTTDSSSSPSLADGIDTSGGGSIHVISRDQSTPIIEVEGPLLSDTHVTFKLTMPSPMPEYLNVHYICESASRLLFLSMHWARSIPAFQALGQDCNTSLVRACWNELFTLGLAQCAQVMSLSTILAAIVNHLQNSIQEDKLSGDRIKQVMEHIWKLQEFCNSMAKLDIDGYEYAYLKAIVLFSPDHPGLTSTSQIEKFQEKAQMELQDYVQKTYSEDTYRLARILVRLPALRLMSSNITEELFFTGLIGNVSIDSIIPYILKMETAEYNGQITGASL
Description: After 24 h, cells were harvested for Luciferase activity. The relative luciferase activity was calculated while setting pCMX-TR4 in vehicle control as 1. (FIG. 6B) Protease protective peptide mapping were analyzed in liganded-PPARγ and TR4. […] The reaction was stopped by adding 2×SDS-sample buffer. The protease digestion pattern was resolved by gel electrophoresis in 12.5% (for PPARγ), and 16% (for TR4) SDS-PAGE. […] After 24 h, cells were harvested for Luciferase activity. The relative luciferase activity was calculated while setting pCMX-TR4 in vehicle control as 1.
Mouse macrophage RAW 264.7 cells, obtained from ATCC, were cultured in DMEM medium supplemented with 8% fetal bovine serum and 100 µg/ml penicillin-streptomycin and maintained on the petri-dishes. […] After 24 h, cells were harvested for luciferase assays.

[2] = target: T2, PPARγ/RXR (Homo sapiens, UniProt P37231); test: CD36-luc luciferase reporter assay, PPARγ/RXR co-transfected into CV-1 cells; type: cell-based; details: 24 h
T2 construct: expressed in transfected cells; host or cells: CV-1
T2 sequence (P37231 29-505 limits assumed): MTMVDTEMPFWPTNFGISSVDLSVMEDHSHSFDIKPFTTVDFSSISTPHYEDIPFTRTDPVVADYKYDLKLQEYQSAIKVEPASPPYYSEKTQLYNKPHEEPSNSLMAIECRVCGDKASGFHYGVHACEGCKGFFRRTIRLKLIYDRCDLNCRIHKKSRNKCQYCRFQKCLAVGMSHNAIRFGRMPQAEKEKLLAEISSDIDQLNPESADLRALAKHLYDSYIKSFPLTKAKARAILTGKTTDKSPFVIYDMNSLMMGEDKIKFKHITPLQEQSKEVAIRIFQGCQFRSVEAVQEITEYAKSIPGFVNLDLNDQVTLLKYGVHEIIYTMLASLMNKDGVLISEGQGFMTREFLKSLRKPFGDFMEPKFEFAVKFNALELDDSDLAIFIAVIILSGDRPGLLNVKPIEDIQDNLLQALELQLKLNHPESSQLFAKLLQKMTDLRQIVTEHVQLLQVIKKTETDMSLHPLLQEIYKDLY
T2 sequence (P19793 1-462 partner): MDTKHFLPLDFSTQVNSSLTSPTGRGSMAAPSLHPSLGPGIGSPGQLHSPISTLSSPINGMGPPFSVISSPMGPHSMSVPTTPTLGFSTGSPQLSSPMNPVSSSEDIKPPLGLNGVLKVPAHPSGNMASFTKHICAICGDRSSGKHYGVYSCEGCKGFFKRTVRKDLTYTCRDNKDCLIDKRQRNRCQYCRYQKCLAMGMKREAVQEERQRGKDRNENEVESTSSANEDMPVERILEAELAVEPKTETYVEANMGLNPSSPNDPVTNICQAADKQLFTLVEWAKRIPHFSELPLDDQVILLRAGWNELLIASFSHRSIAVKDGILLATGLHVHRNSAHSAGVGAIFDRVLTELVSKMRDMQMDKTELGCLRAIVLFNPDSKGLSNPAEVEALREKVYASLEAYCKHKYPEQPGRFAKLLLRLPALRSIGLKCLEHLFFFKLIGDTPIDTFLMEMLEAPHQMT

[3] = target: T1, TR4; test: Limited proteolysis (protease protective peptide mapping) of [35S]-TR4; type: binding; set-up: pCMX-TR4 plasmids consist of the full length human TR4 gene subcloned into pCMX vector; expressed in transfected cells; host or cells: H1299; details: incubated 15 min, trypsin 0.25 and 2.5 g/ml 10 min; compared to DMSO control
Description: (FIG. 6A) PUFAs metabolites induced PPAR- and TR4-mediated CD36 activity. […] After 24 h, cells were harvested for Luciferase activity. The relative luciferase activity was calculated while setting pCMX-TR4 in vehicle control as 1. (FIG. 6B) Protease protective peptide mapping were analyzed in liganded-PPARγ and TR4. […] The reaction was stopped by adding 2×SDS-sample buffer. The protease digestion pattern was resolved by gel electrophoresis in 12.5% (for PPARγ), and 16% (for TR4) SDS-PAGE. […] After 24 h, cells were harvested for Luciferase activity. The relative luciferase activity was calculated while setting pCMX-TR4 in vehicle control as 1.

[4] = 1 and 20 µM in DMSO, compared with AA and EPA
[5] = 1, 10, 50, 100 and 250 µM in BSA

TR4-mediated CD36 expression (CD36-luc luciferase activity) [1, 4] | PPAR/RXR-mediated CD36 expression (CD36-luc luciferase activity) [2, 4] | TR4-mediated CD36 expression (CD36-luc luciferase activity) [1, 5] | PPAR/RXR-mediated CD36 expression (CD36-luc luciferase activity) [2, 5] | SMILES | Protease digestion pattern of ligand-bound TR4 [3]
much better induction | much better induction | – | – | CCCCCC(O)/C=C/C=C\CCCCCCCC(=O)O (centres unmarked) [13-HODE] | several changed proteolysis resisting fragments
much better induction | much better induction | – | – | CCCCC[C@H](O)/C=C/C=C\C/C=C\C/C=C\CCCC(=O)O [15-HETE] | several changed proteolysis resisting fragments
– | – | mildly induced | mildly induced | CCCCC/C=C\C/C=C\C/C=C\C/C=C\CCCC(=O)O [AA, arachidonic acid] | –
